Patent US12454509B2, “Local anesthetics with selective-sensory nerve blockade” (Children's Medical Center Corporation, priority 2019, dated 2025)
pIC50: −log10 of the molar value. Values joined by “and” are separate entries in the source; they are usually repeats but may differ in a detail not shown here. Equal entries are not always repeated.

How the values were obtained:
peak Nav1.5 = peak Nav1.5 (Homo sapiens, UniProt Q14524); assay: Whole-cell patch clamp, peak Nav1.5 current in stably transfected HEK cells; conditions: for peak Nav1.5 current amplitude, percent reduction: individual cell (raw data); for inhibition at 1 µM: HEK293, read-out: peak Nav1.5 current amplitude, percent reduction, 1 μM, individual cell (raw data); for inhibition at 10 µM: HEK293, read-out: peak Nav1.5 current amplitude, percent reduction, 10 μM, individual cell (raw data); for inhibition at 100 µM: HEK293, read-out: peak Nav1.5 current amplitude, percent reduction, 100 μM, individual cell (raw data); for inhibition at 1000 µM: HEK293, read-out: peak Nav1.5 current amplitude, percent reduction, 1000 μM, individual cell (raw data)
Sequence of peak Nav1.5 (Q14524 whole entry): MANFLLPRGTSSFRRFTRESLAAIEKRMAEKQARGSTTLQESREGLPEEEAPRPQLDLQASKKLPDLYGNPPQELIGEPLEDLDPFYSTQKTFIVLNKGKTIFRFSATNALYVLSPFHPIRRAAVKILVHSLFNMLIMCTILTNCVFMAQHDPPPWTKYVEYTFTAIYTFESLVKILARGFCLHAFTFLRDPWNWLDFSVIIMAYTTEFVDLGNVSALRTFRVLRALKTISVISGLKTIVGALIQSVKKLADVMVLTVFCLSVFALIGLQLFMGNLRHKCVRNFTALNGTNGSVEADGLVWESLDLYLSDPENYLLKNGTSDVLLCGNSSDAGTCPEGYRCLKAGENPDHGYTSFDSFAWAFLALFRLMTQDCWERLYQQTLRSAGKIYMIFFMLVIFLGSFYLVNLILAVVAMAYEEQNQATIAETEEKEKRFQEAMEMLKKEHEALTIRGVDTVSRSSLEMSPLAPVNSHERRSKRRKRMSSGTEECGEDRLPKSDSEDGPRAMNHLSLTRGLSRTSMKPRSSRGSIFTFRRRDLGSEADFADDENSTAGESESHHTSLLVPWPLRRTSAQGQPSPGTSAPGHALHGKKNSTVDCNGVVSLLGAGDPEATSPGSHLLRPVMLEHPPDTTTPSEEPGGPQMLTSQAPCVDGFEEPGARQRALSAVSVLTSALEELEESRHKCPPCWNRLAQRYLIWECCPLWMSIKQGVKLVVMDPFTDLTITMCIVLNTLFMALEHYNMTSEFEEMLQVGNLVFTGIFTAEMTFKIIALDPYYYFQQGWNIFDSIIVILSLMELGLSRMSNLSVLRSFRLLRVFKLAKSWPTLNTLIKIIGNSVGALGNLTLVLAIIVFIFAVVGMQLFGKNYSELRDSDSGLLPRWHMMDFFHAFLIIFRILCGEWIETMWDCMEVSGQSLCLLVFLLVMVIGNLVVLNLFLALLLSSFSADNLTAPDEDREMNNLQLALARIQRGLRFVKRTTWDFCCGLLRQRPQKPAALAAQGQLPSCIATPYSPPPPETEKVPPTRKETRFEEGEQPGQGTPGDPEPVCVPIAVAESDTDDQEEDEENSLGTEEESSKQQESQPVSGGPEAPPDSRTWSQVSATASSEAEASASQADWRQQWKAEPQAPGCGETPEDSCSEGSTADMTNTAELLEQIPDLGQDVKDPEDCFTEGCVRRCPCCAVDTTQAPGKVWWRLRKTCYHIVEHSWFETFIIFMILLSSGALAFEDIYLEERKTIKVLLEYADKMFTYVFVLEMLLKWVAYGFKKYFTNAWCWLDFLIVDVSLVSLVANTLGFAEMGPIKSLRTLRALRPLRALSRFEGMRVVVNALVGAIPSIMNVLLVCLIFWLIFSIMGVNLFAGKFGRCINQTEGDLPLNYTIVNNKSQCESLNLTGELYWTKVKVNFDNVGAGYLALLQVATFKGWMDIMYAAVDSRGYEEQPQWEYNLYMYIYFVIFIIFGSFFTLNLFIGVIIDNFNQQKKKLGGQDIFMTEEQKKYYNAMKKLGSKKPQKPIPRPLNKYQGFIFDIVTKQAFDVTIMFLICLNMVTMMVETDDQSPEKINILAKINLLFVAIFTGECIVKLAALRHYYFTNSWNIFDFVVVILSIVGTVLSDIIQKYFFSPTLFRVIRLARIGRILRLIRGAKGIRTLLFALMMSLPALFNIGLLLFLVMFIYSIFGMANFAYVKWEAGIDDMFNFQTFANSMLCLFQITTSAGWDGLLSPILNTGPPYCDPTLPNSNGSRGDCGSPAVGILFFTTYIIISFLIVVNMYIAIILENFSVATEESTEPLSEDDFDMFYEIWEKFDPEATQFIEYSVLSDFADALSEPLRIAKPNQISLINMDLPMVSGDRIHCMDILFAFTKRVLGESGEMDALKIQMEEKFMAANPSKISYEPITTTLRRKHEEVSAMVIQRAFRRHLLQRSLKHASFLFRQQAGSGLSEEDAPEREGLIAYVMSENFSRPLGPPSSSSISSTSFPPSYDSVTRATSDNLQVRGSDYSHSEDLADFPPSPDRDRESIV
Experimental: (§1) These experiments were designed to examine the acute effects of 4Sa (ZYK2312-1), 4Sb (ZYK2312-2), and bupivacaine on hERG and peak Nav1.5 currents recorded from stably transfected HEK cells.
(§2) Experimental Methods: Currents were measured using the whole-cell variant of the patch clamp method. Glass pipettes were pulled from borosilicate glass by a horizontal puller (Sutter Instruments, USA). Pipette tip resistance was approximately 1 to 2 MΩ when filled with internal solutions. Series resistance was compensated electronically by approximately 60-80%. Bath temperature was measured by a thermistor placed near the cell under study. An Axopatch 1-B amplifier (Axon Instruments, Foster City, CA) was used for whole-cell voltage clamping. Creation of voltage clamp pulses and data acquisition was controlled by a computer running pClamp software (ver 9.2 Axon Instruments). After rupture of the cell membrane (entering whole-cell mode), current kinetics and amplitudes were allowed to stabilize as the cell was dialyzed with internal solution and paced every 5 seconds (typically 2 to 3 minutes). Peak INa was elicited using a pulse pattern with fixed amplitudes (conditioning prepulse: −120 mV for 50 ms; depolarizing test step to −30 mV for 20 ms). hERG current was elicited with a 500 ms pulse to +10 mV followed by a 500 ms pulse to −40 mV (holding potential=[…]). Cells were perfused at each testing concentration until a steady-state was reached.
(§3) Raw data and mean±SEM are given. Data are presented as percent reduction of current amplitude. […] Each cell served as its own control. A nonlinear curve-fitting routine was utilized to fit a three-parameter Hill equation to the results using MicroCal Origin, version 6.0 software. The equation is:
(§4) [formula] where Vmax=100 and k and n are unconstrained variables.

sciatic nerve [1] = assay: Sciatic nerve block in rats: duration of thermal nociceptive (sensory) block, modified hotplate test; format: in vivo, rat; conditions: for Sensory:Motor Block Ratio: rat sciatic nerve block; for Block Duration (min) Sensory: rat sciatic nerve injection 0.3 mL
From the text: (§5) Sciatic Nerve Block and Neurobehavioral Testing. Animals were cared for in compliance with protocols approved by the Children's Hospital Animal Care and Use Committee, and the Massachusetts Institute of Technology Committee on Animal Care, which conformed to guidelines of the International Association for the Study of Pain. Adult male Sprague-Dawley rats (Charles River Laboratories) weighing 320-450 g were housed in groups, in a 6 AM to 6 PM light-dark cycle. Under brief isoflurane-oxygen anesthesia, a 23G needle was introduced postero-medial to the greater trochanter, until bone was contacted, and 0.3 mL of test solution was injected over the sciatic nerve. Thermal nociception was assessed by a modified hotplate test, and motor function via a weight-bearing test. […] Motor strength was assessed with a weight-bearing test. In brief, the animal was held over a digital balance such that it could bear weight with 1 hind paw at a time. The maximum weight that it could bear was recorded. The duration of motor blockade was defined as the time for weight bearing to return halfway to normal from maximal block. The halfway point for each rat was defined as […].

sciatic nerve [2] = assay: Sciatic nerve block in rats: duration of motor block, weight-bearing test; format: in vivo; conditions: rat sciatic nerve injection 0.3 mL
From the text: as §5

PC12 cells = assay: Cytotoxicity in PC12 cells; format: cell-based, rat; conditions: for cytotoxicity compared with ropivacaine and bupivacaine (in words): FIG. 1 / Table 2; for pIC50: Rattus norvegicus, PC-12, cytotoxicity, exposure up to 24 h
Experimental: (§6) C2C12 Mouse myoblasts [American Type Culture Collection (ATCC) CRL-1772] were cultured to proliferate in DMEM supplemented with 20% FBS and 100 Penicillin Streptomycin. Cell culture supplies were obtained from Invitrogen, unless otherwise noted. Cells were plated at 50,000 cells per mL in DMEM with 2% horse serum and 1% Penn Strep, and left to differentiate into myotubules for 10-14 days. During differentiation, media were exchanged every 2 to 3 days. Cell viability and proliferation were studied after exposures to drugs for up to 24 h. PC12 cells (ATCC, CRL-1721) originating from rat adrenal gland pheochromocytoma were grown in 24-well tissue culture dishes (CellBind; Corning) with F-12K (ATCC) supplemented with 12.5% horse serum (Gibco), 2.5% FBS (Gibco), and 1% Penn Strep (Sigma). For neuronal induction (PC12), cells were seeded at a relative low density of 5×10^4 cells/cm2 and 50 ng/mL NGF was added 24 h after seeding. Cell viability and proliferation were evaluated as for C2C12 cells. Experiments with PC12 cells were conducted for up to 24 hours.

hERG = hERG (Homo sapiens, UniProt Q12809); assay: Whole-cell patch clamp, hERG current in stably transfected HEK cells
Sequence of hERG (Q12809 whole entry): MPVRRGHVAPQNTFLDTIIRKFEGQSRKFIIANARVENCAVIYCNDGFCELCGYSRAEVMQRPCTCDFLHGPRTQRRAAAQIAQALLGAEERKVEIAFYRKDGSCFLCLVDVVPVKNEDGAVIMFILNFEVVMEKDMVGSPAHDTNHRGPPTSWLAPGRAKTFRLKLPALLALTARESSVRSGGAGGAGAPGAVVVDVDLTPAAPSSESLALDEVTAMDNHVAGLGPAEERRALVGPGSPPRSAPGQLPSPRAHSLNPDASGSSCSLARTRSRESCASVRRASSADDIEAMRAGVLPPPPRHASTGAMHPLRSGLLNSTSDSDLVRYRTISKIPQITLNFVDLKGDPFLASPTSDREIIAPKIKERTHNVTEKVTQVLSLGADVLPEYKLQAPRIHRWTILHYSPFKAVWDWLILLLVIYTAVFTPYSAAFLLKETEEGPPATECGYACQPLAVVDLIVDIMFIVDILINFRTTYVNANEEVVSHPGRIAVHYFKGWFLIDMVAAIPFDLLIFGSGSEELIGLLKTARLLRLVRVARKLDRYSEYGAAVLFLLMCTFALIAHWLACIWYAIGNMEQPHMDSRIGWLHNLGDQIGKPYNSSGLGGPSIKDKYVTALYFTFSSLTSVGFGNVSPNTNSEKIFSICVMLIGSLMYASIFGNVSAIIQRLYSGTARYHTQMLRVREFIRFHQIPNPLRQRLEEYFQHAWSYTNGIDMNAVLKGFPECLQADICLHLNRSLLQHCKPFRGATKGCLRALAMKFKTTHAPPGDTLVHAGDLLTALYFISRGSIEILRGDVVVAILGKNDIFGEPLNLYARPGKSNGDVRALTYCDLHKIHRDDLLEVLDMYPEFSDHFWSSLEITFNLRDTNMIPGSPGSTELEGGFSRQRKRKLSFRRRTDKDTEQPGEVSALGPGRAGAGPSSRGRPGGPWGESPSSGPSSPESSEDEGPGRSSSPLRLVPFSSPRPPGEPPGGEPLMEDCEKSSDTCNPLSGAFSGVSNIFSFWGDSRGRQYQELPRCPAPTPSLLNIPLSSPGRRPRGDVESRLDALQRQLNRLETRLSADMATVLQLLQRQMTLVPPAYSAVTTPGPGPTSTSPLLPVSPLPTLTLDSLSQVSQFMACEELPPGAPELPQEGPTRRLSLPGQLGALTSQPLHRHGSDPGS
Experimental: as §1, §2, §3, §4

C2C12 Mouse myoblasts = assay: Cytotoxicity in C2C12 myotubules; format: cell-based; conditions: C2C12 cells; for cytotoxicity compared with ropivacaine and bupivacaine (in words): FIG. 2 / Table 2; for pIC50: Mus musculus, cytotoxicity, exposure up to 24 h
Experimental: as §6

| Compound | peak Nav1.5 current amplitude, percent reduction (peak Nav1.5; 1 μM) [%] | peak Nav1.5 current amplitude, percent reduction, mean ± SE (peak Nav1.5; 1 μM) [%] | peak Nav1.5 current amplitude, percent reduction (peak Nav1.5; 10 μM) [%] | peak Nav1.5 current amplitude, percent reduction, mean ± SE (peak Nav1.5; 10 μM) [%] | peak Nav1.5 current amplitude, percent reduction, mean ± SE (peak Nav1.5; 100 μM) [%] | peak Nav1.5 current amplitude, percent reduction, mean ± SE (peak Nav1.5; 300 μM) [%] | peak Nav1.5 current amplitude, percent reduction, mean ± SE (peak Nav1.5; 1000 μM) [%] | inhibition at 1 µM (peak Nav1.5) [%] | inhibition at 10 µM (peak Nav1.5) [%] | inhibition at 100 µM (peak Nav1.5) [%] | inhibition at 1000 µM (peak Nav1.5) [%] | Block Duration (min) Sensory (sciatic nerve [1]; dose conc 10 mM) [min] | Block Duration (min) Sensory (sciatic nerve [1]; dose conc 15 mM) [min] | Block Duration (min) Motor (sciatic nerve [2]; dose conc 10 mM) [min] | Block Duration (min) Motor (sciatic nerve [2]; dose conc 15 mM) [min] | cytotoxicity compared with ropivacaine and bupivacaine (in words) (PC12 cells) | hERG current amplitude, percent reduction (hERG; human, 1 μM) [%] | hERG current amplitude, percent reduction, mean ± SE (hERG; human, 1 μM) [%] | hERG current amplitude, percent reduction, mean ± SE (hERG; human, 10 μM) [%] | hERG current amplitude, percent reduction, mean ± SE (hERG; human, 100 μM) [%] | further results |
| --- | --- | --- | --- | --- | --- | --- | --- | --- | --- | --- | --- | --- | --- | --- | --- | --- | --- | --- | --- | --- | --- |
| CCC[N@@+]1(CC(=O)OC)CCCC[C@H]1C(=O)Nc1c(C)cccc1C.[Br-] [Compound 4Sb, 2-((2,6-Dimethylphenyl)carbamoyl)-1-(2-methoxy-2-oxoethyl)-1-propylpiperidin-1-ium bromide] | 0 | 0 ± 0 | 0 | 0 ± 0 | 0 ± 0 | 4.2 ± 0.9 | 13.3 ± 2.9 | 0 | 0 | 0 | 13.8 | 90 ± 30 | 200 ± 30 | 0 | 0 | significantly less cytotoxic than ropivacaine and bupivacaine | 0 | 0 ± 0 | 0 ± 0 | 1.5 ± 0.8 | peak Nav1.5 current amplitude, percent reduction (peak Nav1.5; 100 μM): 0%; Sensory:Motor Block Ratio (sciatic nerve [1]; dose conc 10 mM): ∞; Sensory:Motor Block Ratio (sciatic nerve [1]; dose conc 15 mM): ∞; pIC50 (PC12 cells; unit inferred): 1.70; hERG current amplitude, percent reduction (hERG; human, 10 μM): 0%; hERG current amplitude, percent reduction, mean ± SE (hERG; human, 300 μM): 6.4 ± 1.1%; hERG current amplitude, percent reduction, mean ± SE (hERG; human, 1000 μM): 18.3 ± 2.9%; cytotoxicity compared with ropivacaine and bupivacaine (in words) (C2C12 Mouse myoblasts): significantly less cytotoxic than ropivacaine and bupivacaine; pIC50 (C2C12 Mouse myoblasts; unit inferred): 1.71 |
| CCC[N@+]1(CC(=O)OC)CCCC[C@H]1C(=O)Nc1c(C)cccc1C.[Br-] [Compound 4Sa, 2-((2,6-Dimethylphenyl)carbamoyl)-1-(2-methoxy-2-oxoethyl)-1-propylpiperidin-1-ium bromide] | 0 | 0 ± 0 | 0 | 0 ± 0 | 2.3 ± 1.4 | 5.6 ± 1.8 | 14.6 ± 3.4 | 0 | 0 |  | 11.2 | 200 ± 60 |  | 100 ± 60 |  | significantly less cytotoxic than ropivacaine and bupivacaine | 0 | 0 ± 0 | 3.6 ± 0.5 | 16.8 ± 4.0 | inhibition at 300 µM (peak Nav1.5; HEK293, read-out: peak Nav1.5 current amplitude, percent reduction, 300 μM, individual cell (raw data)): 3.7%; pIC50 (PC12 cells): 1.72; pIC50 (hERG): 3.09; hERG current amplitude, percent reduction, mean ± SE (hERG; human, 300 μM): 31.3 ± 2.0%; hERG current amplitude, percent reduction, mean ± SE (hERG; human, 1000 μM): 51.6 ± 2.2%; cytotoxicity compared with ropivacaine and bupivacaine (in words) (C2C12 Mouse myoblasts): significantly less cytotoxic than ropivacaine and bupivacaine; pIC50 (C2C12 Mouse myoblasts): 1.84 |
| CCCCN1CCCCC1C(=O)Nc1c(C)cccc1C (stereo not drawn) [Bupivacaine, bupivacaine, reference compound] |  | 13.5 ± 3.1 |  | 49.0 ± 1.0 | 90.7 ± 1.5 |  |  |  | 50.8 | 89.2 |  | 129 ± 21 | 215 ± 31 | 140 ± 15 | 222 ± 30 |  |  |  |  |  | pIC50 (peak Nav1.5): 5.01; pIC50 (PC12 cells): 3.06; pIC50 (hERG): 4.79; hERG current amplitude, percent reduction (hERG; 1 μM, individual cell (raw data)): 19.8% and 9.1% and 10.5%; hERG current amplitude, percent reduction, mean ± SE (hERG; 1 μM, mean ± SE): 13.1 ± 3.4%; hERG current amplitude, percent reduction (hERG; 10 μM, individual cell (raw data)): 43.0% and 45.0% and 42.1%; hERG current amplitude, percent reduction, mean ± SE (hERG; 10 μM, mean ± SE): 43.4 ± 0.9%; hERG current amplitude, percent reduction (hERG; 100 μM, individual cell (raw data)): 76.3% and 70.7% and 78.9%; hERG current amplitude, percent reduction, mean ± SE (hERG; 100 μM, mean ± SE): 75.3 ± 2.4%; pIC50 (C2C12 Mouse myoblasts): 3.14 |
